In patent US20130317092A1 (priority 2007, published 2013):
Numbered stars: 1 amine (or outer) side, 2 acyl side, 3 side chain; on linkers, the order of the positions; unused ones are H or OH. Bridge positions count the residues as written; N and C are the ends. Square brackets hold non-standard residues; d marks the D form. Peptide text beside a SMILES is read from it. I, II: the chains in the order shown. Actinocin(9to1) = Cc1c2oc3c(C)ccc(C(=O)[*:1])c3nc-2c(C(=O)[*:2])c(N)c1=O; NMeV = CN[C@H](C(=O)O)C(C)C; Sar = CNCC(=O)O

Legend:
AChmiRNA (miRNA-181a) = AChmiRNA (miRNA-181a) level by real-time RT-PCR in Meg-01 cells; type: cell-based, human; details: for AChmiRNA levels on co-treatment with Thapsi: Meg-01 cells co-treated with Thapsi and inhibitor; for ARP-induced decrease of AChmiRNA on co-treatment: Meg-01 cells, ARP plus inhibitor
AChE-R = AChE-R protein immunocytochemistry in Meg-01 cells; type: cell-based, human; details: 24 hours
activated caspase-3 = assay: Activated caspase-3 immunostaining in Meg-01 cells; type: cell-based, human; details: for caspase-3 activation induced by Thapsi or ARP, with co-treatment: Thapsi or ARP plus inhibitor; for caspase-3 activation induced by Thapsi, with co-treatment: Thapsi plus inhibitor
RAW 264.7 cells = assay: NO production of LPS-challenged RAW 264.7 cells transfected with miR mimics; type: cell-based, murine
Experimental: Murine RAW 264.7 macrophage-derived cell line known to express TLR4 and respond to endotoxin by production of pro-inflammatory mediators such as Nitric Oxide (NO), prostaglandins, and cytokines as ILE IL6, and TNFalpha were used (described in the preceding examples e.g., Examples 7 and 8). Cells were grown in 5 ml flasks in a humidified atmosphere in Dulbecco's modified Eagle's medium (DMEM, Biological Industries) supplemented with 10% fetal calf serum (FCS) and 2 mM L-glutamine at 37° C., 5% CO2.
Griess method was used to determine NO2 levels in medium in which macrophages had been cultured. 100 μl of each sample+100 μl of Griess reagent (1% sulfanilamide/0.1% naphthylethylenediamine dihydrochloride/2.5% H3PO4)—were incubated 10-20 min at room temperature. Read absorbance at 546 nm in micro-ELISA reader.
miR 132 and 182* (SEQ ID NOs: 54 and 93, respectively) were LNA modified (products are designated with SEQ ID NOs. 107 and 108, respectively). A locked nucleic acid (LNA), often referred to as inaccessible RNA, is a modified RNA. Ribose moiety of LNA nucleotide is modified with an extra bridge connecting 2′ and 4′ carbons. The bridge “locks” the ribose in 3′-endo structural conformation, which is often found in A-form of DNA or RNA. LNA nucleotides can be mixed with DNA or RNA bases in the oligonucleotide whenever desired. The locked ribose conformation enhances base stacking and backbone pre-organization.
electroporation and lipofection were used for cell transfection.
Oligos containing LNA modifications on every third base (Table 4) were obtained from Sigma-Proligo. Transfection was performed with Lipofectamine 2000 (Invitrogen, Carlsbad, Calif.) using 3 μg of oligo per sample. Briefly, cells were brought to 80%-90% confluence at the time of transfection. For each transfection sample, 3 μg oligo were diluted in 1 ml of RPMI-1640 while the lipofectamine reagent was diluted in 1 ml of RPMI-1640. After 5 minutes the diluted oligo and lipofectamine were combined and incubated for 20 minutes. This was added to the cells within the 75 ml flask, containing 6 ml RPMI complete+GM-CSF ([…] final oligo concentration). […]
To determine cell viability 40 μl of thiazolyl blue tetrazolium bromide (MTT) reagent (Sigma) at 5 mg/ml was added per sample well, incubated for 30 minutes at 37° C. Medium was removed, 400 μl of DMSO was added per well and absorbance read at 550 nm Griess method was used to determine NO2 levels in conditioned medium from macrophage cultures. […] Absorbance was read at 546 nm in a micro-ELISA reader. TNF-α, IL-6 levels were measured by Enzyme-Linked Immunosorbent Assay (ELISA) according to manufacturer's procedures (R&D Systems kits, MTA00, M6000B, respectively). All absorbance results were normalized using standard curves. […]

[1] = tested on: 3′UTR fragment of human AChE cDNA; assay: Dot blot hybridization of LNA-modified oligos with PCR-amplified AChE 3′UTR; type: binding; details: 5′-32P-labeled LNA-modified oligos
Experimental: The common AChE 3′-UTR sequence was obtained from AY750146 (all mRNA sequence beginning from stop codon). 3′-UTR of AChE was amplified by RT-PCR using Promega reagents and total RNA isolated with QIAGEN RNeasy kit from post-mortem human brain, with primers including XhoI, NotI restriction sites in 5′ and 3′ primer, respectively. Primer sequences used were: (5′): […], (3′) (SEQ ID NO: 111): […] (SEQ ID NO: 112). Annealing temperature of 57° C. was used. PCR product was purified with QIAGEN QiaQuick kit, size of fragment verified in agarose gel, spotted on a dry HyBond nylon membrane in 2 ul drops, cross-linked to the membrane using 1200 mJ UV burst, and baked for 1 hr at 80° C. Membrane was blocked for at least 2 hours in solution containing 50% deionized formamide, 5×SSPE, 0.5% SDS, 5×Denhardt's Solution at 50° C.; and hybridized o/night in same conditions with 5′-32P-labeled probes mimicking miRs wholly or with mismatches as indicated, washed 4 times at 37° C. in 3×SSPE, 5% SDS, 10×Denhardt's solution; once at 42° C. in 1×SSPE, 1% SDS; exposed over up to 3 days to a PhosphorImager (Molecular Dynamics/GE Healthcare) plate, and signal quantified using FujiFilm's ImageGauge 4 software.

AChE-R mRNA = AChE-R mRNA level (RT-PCR, fluorescent in situ hybridization) in Meg-01 cells; type: cell-based, human
Meg-01 cells [2] = assay: Scanning electron microscopy of Meg-01 cell surface (megakaryocytic maturation); type: cell-based, human; details: 24 hour treatment
Meg-01 cells [3] = assay: Ploidy / DNA content of Meg-01 cells by FACS and propidium iodide; type: cell-based, human; details: 72 hours
Meg-01 cells [4] = assay: Nuclear area measurement of Meg-01 cells; type: cell-based, human; details: 24 hours
AChE-S = AChE-S protein immunocytochemistry in Meg-01 cells; type: cell-based, human; details: 24 hours
activated caspase-9 = assay: Activated caspase-9 immunostaining in Meg-01 cells; type: cell-based, human
Bcl-2 = Bcl-2 immunostaining in Meg-01 cells; type: cell-based, human
Meg-01 cells [5] = assay: DNA fragmentation by TUNEL assay in Meg-01 cells; type: cell-based, human
PKCβII = PKCβII immunocytochemistry in Meg-01 cells; type: cell-based, human; details: 24 hours
[6] = tested on: Murine macrophage RAW 264.7 cells; assay: Nitric oxide production (nitrite, Griess) by RAW 264.7 macrophages; type: cell-based; details: LPS 1 μg/ml, IFN-γ 4 ng/ml, oligos 100 nM
Experimental: Murine macrophage RAW 264.7 cells were cultured in 48 well plates (50×10^3 cells per well). The production of NO by these macrophages was examined following various stimuli (6 repetitions for each treatment) at three time intervals (6, 12 and 24 hours) as depicted in FIGS. 27a, 27b and 27c.
Mouse RAW cells, human U937 cells and primary human macrophages were treated for 24 h with 1 μM CpG oligonucleotides or 1 μg/ml bacterial lipopolysaccharide added to standard growth medium
Interleukin 6 expression was assayed by QRT-PCR, nitric oxide was measured by Griess assay and prostaglandin E2 levels were measured by R&D ELISA kit according to manufacturer's instructions.

Bisindolylmaleimide [BIM]
AChmiRNA levels on co-treatment with Thapsi (AChmiRNA (miRNA-181a)): restored the control levels of AChmiRNA
ARP-induced decrease of AChmiRNA on co-treatment (AChmiRNA (miRNA-181a)): prevented the ARP effect
increase in AChE-R immunoreactivity elicited by Thapsi or ARP, with co-treatment (AChE-R): blocked the characteristic increase in AChE-R immunoreactivity
caspase-3 activation induced by Thapsi or ARP, with co-treatment (activated caspase-3; 24 hours): inhibited the activation of caspase-3 induced by both treatments

miR-182* mimic: LNA-modified oligo mimicking miR-182*: TG+GTT+CTA+GAC+TTG+CCA+ACT+A (TGGTTCTAGACTTGCCAACTA; LNA at 3, 6, 9, 12, 15, 18, 21, other sugars and backbone not given here)
activation of macrophage cell lines by LPS (NO production) after transfection (RAW 264.7 cells; LPS-exposed RAW-264.7 cells transfected with oligo (Example 13)): somewhat less prominently
endotoxin response (NO production) after transfection (RAW 264.7 cells; RAW 264.7 cells transfected or electroporated, then endotoxin challenge (Example 11)): significantly attenuate endotoxin response
binding to PCR-amplified AChE 3′UTR (dot blot signal) [1]: significant binding to 20 ng doses of PCR product

SEQ ID NO:20: similar oligo with an inverse sequence to AChmiON, used as negative control (CCACGUCCUCUUGCACCGUC; similar oligo to AChmiON, chemistry not explicitly stated, further chemistry not given here)
effect on the AChE splice shift (AChE-R mRNA; negative control oligo, data not shown): no significant effect on the AChE splice shift

Cc1c2oc3c(C)ccc(C(=O)N[C@@H]4C(=O)N[C@H](C(C)C)C(=O)N5CCC[C@H]5C(=O)N(C)CC(=O)N(C)[C@@H](C(C)C)C(=O)O[C@@H]4C)c3nc-2c(C(=O)N[C@@H]2C(=O)N[C@H](C(C)C)C(=O)N3CCC[C@H]3C(=O)N(C)CC(=O)N(C)[C@@H](C(C)C)C(=O)O[C@@H]2C)c(N)c1=O [actinomycin D, Actinomycin D] (I: T[dV]P[Sar][NMeV] / II: T[dV]P[Sar][NMeV]; ester I:1-I:C, II:1-II:C; linker I:N-II:N via Actinocin(9to1))
caspase-3 activation induced by Thapsi, with co-treatment (activated caspase-3): inhibited

miR-132 mut2A>G: miR-132 mimic with single mismatch in second nucleotide: TG+ACA+GTC+TAC+AGC+CAT+GGT+CG (TGACAGTCTACAGCCATGGTCG; LNA at 3, 6, 9, 12, 15, 18, 21, other sugars and backbone not given here)
binding to PCR-amplified AChE 3′UTR (dot blot signal) [1]: detectable signal only when bound to 50 ng of PCR product

CN(C)C(=O)Oc1ccc[n+](C)c1 [Pyridostigmine]
caspase-3 activation induced by Thapsi, with co-treatment (activated caspase-3): inhibited the activation of caspase-3 induced by Thapsi

miR-182* mut2G>A: miR-182* mimic with single mismatch in second nucleotide: TA+GTT+CTA+GAC+TTG+CCA+ACT+A (TAGTTCTAGACTTGCCAACTA; LNA at 3, 6, 9, 12, 15, 18, 21, other sugars and backbone not given here)
binding to PCR-amplified AChE 3′UTR (dot blot signal) [1]: disappeared altogether

ARP: human AChE-R C-terminal peptide GMQGPAGSGWEEGSGSPPGVTPLFSP (ARP peptide (synthetic))
level of AChmiRNA (AChmiRNA (miRNA-181a); Meg-01 cells treated for 24 hours, agent alone): decreased the level of AChmiRNA
cell surface morphology (scanning electron microscopy) (Meg-01 cells [2]): induced cell surface modifications
ploidy (DNA content) (Meg-01 cells [3]): increased ploidy
nuclear area / nuclei size (Meg-01 cells [4]): increased
AChE-R mRNA level (RT-PCR) (AChE-R mRNA; 24 hours): increased the level of AChE-R mRNA
AChE-R mRNA level by FISH (population distribution) (AChE-R mRNA; agent alone): rightward shift in the population distribution of labeling intensity
AChE-R protein level (immunohistochemistry) (AChE-R): increase also in the protein level
expression of the AChE-S variant (immunohistochemistry) (AChE-S): decrease of expression of the AChE-S variant
incidence of activated caspase-3 positive cells (activated caspase-3; 24 hours, agent alone): increased the fraction of cells immunopositive for activated caspase-3
incidence of activated caspase-9 positive cells (activated caspase-9): increased the incidence of positive cells for activated caspase-9 immunostaining
immunoreactivity of Bcl-2 (Bcl-2): decrease in the immunoreactivity of Bcl-2
DNA fragmentation / cell death (TUNEL) (Meg-01 cells [5]): no significant changes
staining intensity for PKCβ (PKCβII): increased staining intensity for PKCβ

CO[C@H](C/C=C\C=C\CC/C=C/C[C@H](C)/C=C/C(=C\C(=O)O)CC(=O)O)/C(C)=C\C=C(/C)C(=O)O [Bongkrekic acid]
caspase-3 activation induced by Thapsi or ARP, with co-treatment (activated caspase-3; 24 hours): inhibited the caspase-3 activation induced by ER-calcium releasing or ARP

CCCCCCCCCCCCCC(=O)O[C@@H]1[C@@H](C)[C@@]2(O)[C@@H](C=C(CO)C[C@]3(O)C(=O)C(C)=C[C@@H]23)[C@@H]2C(C)(C)[C@]12OC(C)=O [PMA, phorbol 12-myristate 13-acetate]
staining intensity for PKCβ (PKCβII): increased staining intensity for PKCβ

IFN-γ: interferon (IFN)-γ
Nitrite concentration reflecting NO production ([6]; RAW 264.7, 6 hours): 8 µM
Nitrite concentration reflecting NO production ([6]; RAW 264.7, 12 hours): 26 µM
Nitrite concentration reflecting NO production ([6]; RAW 264.7, 24 hours): 54 µM

O=S(=O)(NCCNCC=Cc1ccc(Br)cc1)c1cccc2cnccc12 [H89, N-(2-((p-Bromocinnamyl)amino)ethyl)-5-isoquinolinesulfonamide]
AChmiRNA levels on co-treatment with Thapsi (AChmiRNA (miRNA-181a)): restored the control levels of AChmiRNA
ARP-induced decrease of AChmiRNA on co-treatment (AChmiRNA (miRNA-181a)): prevented the ARP effect
increase in AChE-R immunoreactivity elicited by Thapsi or ARP, with co-treatment (AChE-R): blocked the characteristic increase in AChE-R immunoreactivity
caspase-3 activation induced by Thapsi or ARP, with co-treatment (activated caspase-3; 24 hours): prevented the differentiation-associated caspase-3 activation induced by both Thapsi and ARP
